Measured values published in the NIST ThermoML archive (doi:10.1021/je400102p).

Experiment: relative permittivity at various frequencies (dimensionless)
Conditions: Liquid, Frequency=0.001 MHz, Concentric Cylinder Capacitor

Cc1ccccc1 [toluene]
Conditions | relative permittivity
303.15 K, 312 kPa | 2.37527
303.15 K, 1015 kPa | 2.37634
303.15 K, 5058 kPa | 2.38253
303.15 K, 10116 kPa | 2.38999
303.15 K, 20221 kPa | 2.40447
303.15 K, 30317 kPa | 2.41824
303.15 K, 40408 kPa | 2.43058
303.15 K, 50497 kPa | 2.44313
303.15 K, 60603 kPa | 2.45469
333.15 K, 402 kPa | 2.31204
333.15 K, 995 kPa | 2.3134
333.15 K, 5053 kPa | 2.32081
333.15 K, 10114 kPa | 2.32958
333.15 K, 20221 kPa | 2.34637
333.15 K, 30317 kPa | 2.36168
333.15 K, 40419 kPa | 2.3756
333.15 K, 50510 kPa | 2.38883
333.15 K, 60615 kPa | 2.40129
363.15 K, 314 kPa | 2.24824
363.15 K, 1010 kPa | 2.2498
363.15 K, 5053 kPa | 2.25867
363.15 K, 10108 kPa | 2.26912
363.15 K, 10109 kPa | 2.26918
363.15 K, 10111 kPa | 2.26913
363.15 K, 20229 kPa | 2.28839
363.15 K, 20231 kPa | 2.28835
363.15 K, 20232 kPa | 2.28831
363.15 K, 30317 kPa | 2.30557
363.15 K, 30325 kPa | 2.30571
363.15 K, 40408 kPa | 2.32135
363.15 K, 50502 kPa | 2.33608
363.15 K, 50510 kPa | 2.33603
363.15 K, 60614 kPa | 2.3499
363.15 K, 60624 kPa | 2.34978
393.15 K, 1622 kPa | 2.18753
393.15 K, 5063 kPa | 2.19687
393.15 K, 5070 kPa | 2.19705
393.15 K, 10114 kPa | 2.20937
393.15 K, 10123 kPa | 2.20955
393.15 K, 20223 kPa | 2.23281
393.15 K, 20234 kPa | 2.23259
393.15 K, 30331 kPa | 2.2527
393.15 K, 40414 kPa | 2.27067
